Measurements: patent US20240366770A1, “DEGRADATION OF BRUTON'S TYROSINE KINASE (BTK) BY CONJUGATION OF BTK INHIBITORS WITH E3 LIGASE LIGAND AND METHODS OF USE” (BeiGene Switzerland GmbH, priority 2021, published 2024)
pIC50: −log10 of the molar value.

Assays:
HEK-293 cells = assay: HEK-293 cytotoxicity detection (CellTiter-Glo); type: cell-based; details: Homo sapiens; HEK-293 cells, 72 h incubation, CellTiter-Glo luminescence, IC50 of cell proliferation inhibition; read-out: HEK293
How it was run: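 Four-parameter logistic fitting of percent inhibition versus concentration gives IC50. Luminescent ATP read-out (CellTiter-Glo) after 72 h compound treatment of HEK-293 cells, 8 doses in 4-fold steps from a 5 mM 500× DMSO stock, final DMSO 0.2%.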

BTK = biological target: T1, BTK (Homo sapiens, UniProt Q06187); assay: BTK degradation in TMD-8 cells (HTRF assay); type: cell-based; details: 6 h treatment, IC50 (DC50) of BTK degradation
T1 construct: High control=Cell group with added DMSO and without compound, indicating microplate readings without BTK degradation; endogenous in cells; host or cells: TMD-8
T1 sequence (Q06187 whole entry): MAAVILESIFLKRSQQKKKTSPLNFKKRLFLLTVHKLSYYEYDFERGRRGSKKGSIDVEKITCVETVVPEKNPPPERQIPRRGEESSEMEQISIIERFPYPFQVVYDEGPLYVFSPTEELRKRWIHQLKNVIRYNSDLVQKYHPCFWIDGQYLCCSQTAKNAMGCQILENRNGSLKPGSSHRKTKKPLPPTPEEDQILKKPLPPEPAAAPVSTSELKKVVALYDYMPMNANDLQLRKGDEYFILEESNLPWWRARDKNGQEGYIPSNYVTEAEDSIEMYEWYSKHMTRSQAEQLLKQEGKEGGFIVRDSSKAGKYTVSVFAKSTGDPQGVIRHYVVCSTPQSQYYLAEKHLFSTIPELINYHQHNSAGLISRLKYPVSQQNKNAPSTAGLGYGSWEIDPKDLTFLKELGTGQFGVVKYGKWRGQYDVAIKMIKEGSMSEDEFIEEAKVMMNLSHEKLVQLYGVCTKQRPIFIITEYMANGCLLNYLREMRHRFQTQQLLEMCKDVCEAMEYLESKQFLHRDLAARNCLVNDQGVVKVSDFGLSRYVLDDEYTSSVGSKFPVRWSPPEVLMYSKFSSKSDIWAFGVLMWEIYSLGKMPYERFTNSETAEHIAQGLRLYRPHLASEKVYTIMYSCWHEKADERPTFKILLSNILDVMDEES
How it was run: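 BTK remaining after compound treatment was measured by HTRF (337 nm excitation, 665/620 nm emission) in lysates of TMD-8 cells. Cells were exposed for 6 h to eight 6-fold-spaced concentrations in 0.2% DMSO. DC50 values were obtained from a Hill-equation fit (top, bottom, slope) of % inhibition.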

Row | Compound | DC50 (BTK) | pIC50 (HEK-293 cells)
1 | Cc1cc(-c2ncnc3[nH]c4cc(C5CCN(CC6CCN(c7ccc(N8CCC(=O)NC8=O)cc7)CC6)CC5)ncc4c23)ccc1[C@@H](C)NC(=O)c1nc(C(C)(C)C)no1 [Example 42, (R)-3-(tert-butyl)-N-(1-(4-(7-(1-((1-(4-(2,4-dioxotetrahydropyrimidin-1(2H)-yl)phenyl)piperidin-4-yl)methyl)piperidin-4-yl)-9H-pyrido[3′,4′:4,5]pyrrolo[2,3-d]pyrimidin-4-yl)-2-methylphenyl)ethyl)-1,2,4-oxadiazole-5-carboxamide] | 1.29 nM | 5.17
2 | Cc1cc(-c2ncnc3[nH]c4cc(N5CCN(CC6CCN(c7ccc(N8CCC(=O)NC8=O)cc7)CC6)CC5)c(C)cc4c23)ccc1[C@@H](C)NC(=O)c1nc(C(C)(C)C)no1 [Example 43, (R)-3-(tert-butyl)-N-(1-(4-(7-(4-((1-(4-(2,4-dioxotetrahydropyrimidin-1(2H)-yl)phenyl)piperidin-4-yl)methyl)piperazin-1-yl)-6-methyl-9H-pyrimido[4,5-b]indol-4-yl)-2-methylphenyl)ethyl)-1,2,4-oxadiazole-5-carboxamide] | 1.22 nM | < 5.00
3 | Cc1cc(-c2ncnc3[nH]c4cc(N5CCN(CC6CCN(c7ccc(N8CCC(=O)NC8=O)cc7)CC6)CC5)c(C)cc4c23)c(F)cc1[C@@H](C)NC(=O)c1noc(C(C)(C)C)n1 [Example 44, (R)-5-(tert-butyl)-N-(1-(4-(7-(4-((1-(4-(2,4-dioxotetrahydropyrimidin-1(2H)-yl)phenyl)piperidin-4-yl)methyl)piperazin-1-yl)-6-methyl-9H-pyrimido[4,5-b]indol-4-yl)-5-fluoro-2-methylphenyl)ethyl)-1,2,4-oxadiazole-3-carboxamide] | 1.38 nM | < 5.00
4 | Cc1cc2c(cc1N1CCN(CC3CCN(c4ccc(N5CCC(=O)NC5=O)cc4)CC3)CC1)[nH]c1ncnc(-c3ccc([C@@H](C)NC(=O)c4noc(C(C)(C)C)n4)c(C)c3F)c12 [Example 45, (R)-5-(tert-butyl)-N-(1-(4-(7-(4-((1-(4-(2,4-dioxotetrahydropyrimidin-1(2H)-yl)phenyl)piperidin-4-yl)methyl)piperazin-1-yl)-6-methyl-9H-pyrimido[4,5-b]indol-4-yl)-3-fluoro-2-methylphenyl)ethyl)-1,2,4-oxadiazole-3-carboxamide] | 1.05 nM | < 5.00
5 | COc1cc2c(cc1N1CCN(CC3CCN(c4ccc(N5CCC(=O)NC5=O)cc4)CC3)CC1)[nH]c1ncnc(-c3ccc([C@@H](C)NC(=O)c4nc(C(C)(C)C)no4)c(C)c3)c12 [Example 46, (R)-3-(tert-butyl)-N-(1-(4-(7-(4-((1-(4-(2,4-dioxotetrahydropyrimidin-1(2H)-yl)phenyl)piperidin-4-yl)methyl)piperazin-1-yl)-6-methoxy-9H-pyrimido[4,5-b]indol-4-yl)-2-methylphenyl)ethyl)-1,2,4-oxadiazole-5-carboxamide] | 0.366 nM | < 5.00
6 | COc1cc2c(cc1N1CCN(CC3CC(c4ccc(C5CCC(=O)NC5=O)cc4)C3)CC1)[nH]c1ncnc(-c3ccc([C@@H](C)NC(=O)c4nc(C(C)(C)C)no4)c(C)c3)c12 (stereo partly drawn) [Example 47, 3-(tert-butyl)-N-((1R)-1-(4-(7-(4-((3-(4-(2,6-dioxopiperidin-3-yl)phenyl)cyclobutyl)methyl)piperazin-1-yl)-6-methoxy-9H-pyrimido[4,5-b]indol-4-yl)-2-methylphenyl)ethyl)-1,2,4-oxadiazole-5-carboxamide] | 1.7 nM | < 5.00
7 | COc1cc2c(cc1N1CCN(C3CCC(c4ccc(C5CCC(=O)NC5=O)cc4)CC3)CC1)[nH]c1ncnc(-c3ccc([C@@H](C)NC(=O)c4nc(C(C)(C)C)no4)c(C)c3)c12 (stereo partly drawn) [Example 48, 3-(tert-butyl)-N-((1R)-1-(4-(7-(4-(4-(4-(2,6-dioxopiperidin-3-yl)phenyl)cyclohexyl)piperazin-1-yl)-6-methoxy-9H-pyrimido[4,5-b]indol-4-yl)-2-methylphenyl)ethyl)-1,2,4-oxadiazole-5-carboxamide] | 0.874 nM | < 5.00

Now from value to compound, other results behind:

Row | DC50 (BTK) | Compound | pIC50 (HEK-293 cells)
8 | 1.08 nM | COc1cc2c(cc1N1CCN(C3CC(c4ccc([C@@H]5CCC(=O)NC5=O)cc4)C3)CC1)[nH]c1ncnc(-c3ccc([C@@H](C)NC(=O)c4nc(C(C)(C)C)no4)c(C)c3)c12 (stereo partly drawn) [Example 49, 3-(tert-butyl)-N—((R)-1-(4-(7-(4-(3-(4-((S)-2,6-dioxopiperidin-3-yl)phenyl)cyclobutyl)piperazin-1-yl)-6-methoxy-9H-pyrimido[4,5-b]indol-4-yl)-2-methylphenyl)ethyl)-1,2,4-oxadiazole-5-carboxamide] | < 5.00
9 | 0.171 nM | COc1cc2c(cc1N1CCN(C3CC(c4ccc([C@H]5CCC(=O)NC5=O)cc4)C3)CC1)[nH]c1ncnc(-c3ccc([C@@H](C)NC(=O)c4nc(C(C)(C)C)no4)c(C)c3)c12 (stereo partly drawn) [Example 50, 3-(tert-butyl)-N—((R)-1-(4-(7-(4-(3-(4-((R)-2,6-dioxopiperidin-3-yl)phenyl)cyclobutyl)piperazin-1-yl)-6-methoxy-9H-pyrimido[4,5-b]indol-4-yl)-2-methylphenyl)ethyl)-1,2,4-oxadiazole-5-carboxamide] | < 5.00
10 | 0.987 nM | COc1cc2c(cc1N1CCN(C3CCN(c4cccc(C5CCC(=O)NC5=O)c4)C3)CC1)[nH]c1ncnc(-c3ccc([C@@H](C)NC(=O)c4nc(C(C)(C)C)no4)c(C)c3)c12 (stereo partly drawn) [Example 51, 3-(tert-butyl)-N-((1R)-1-(4-(7-(4-(1-(3-(2,6-dioxopiperidin-3-yl)phenyl)pyrrolidin-3-yl)piperazin-1-yl)-6-methoxy-9H-pyrimido[4,5-b]indol-4-yl)-2-methylphenyl)ethyl)-1,2,4-oxadiazole-5-carboxamide] | < 5.00
11 | 0.361 nM | COc1cc2c(cc1N1CCN(CC3CCN(c4ccc(N5CCC(=O)NC5=O)cc4)CC3)CC1)[nH]c1ncnc(-c3ccc([C@@H](C)NC(=O)c4nc(C5(C)CC5)no4)c(C)c3)c12 [Example 52, (R)—N-(1-(4-(7-(4-((1-(4-(2,4-dioxotetrahydropyrimidin-1(2H)-yl)phenyl)piperidin-4-yl)methyl)piperazin-1-yl)-6-methoxy-9H-pyrimido[4,5-b]indol-4-yl)-2-methylphenyl)ethyl)-3-(1-methylcyclopropyl)-1,2,4-oxadiazole-5-carboxamide] | < 5.00
12 | 2.26 nM | COc1cc2c(cc1N1CCN(CC3CCN(c4ccc(N5CCC(=O)NC5=O)cc4)CC3)CC1)[nH]c1ncnc(-c3ccc([C@@H](C)NC(=O)c4nc(C5(C)CC5)no4)c(C)c3F)c12 [Example 53, (R)—N-(1-(4-(7-(4-((1-(4-(2,4-dioxotetrahydropyrimidin-1(2H)-yl)phenyl)piperidin-4-yl)methyl)piperazin-1-yl)-6-methoxy-9H-pyrimido[4,5-b]indol-4-yl)-3-fluoro-2-methylphenyl)ethyl)-3-(1-methylcyclopropyl)-1,2,4-oxadiazole-5-carboxamide] | < 5.00
13 | 3.05 nM | COc1cc2c(cc1N1CCN(CC3CCN(c4ccc(N5CCC(=O)NC5=O)cc4)CC3)CC1)[nH]c1ncnc(-c3ccc([C@@H](C)NC(=O)c4nc(C(C)(C)C)no4)c(C)c3F)c12 [Example 54, (R)-3-(tert-butyl)-N-(1-(4-(7-(4-((1-(4-(2,4-dioxotetrahydropyrimidin-1(2H)-yl)phenyl)piperidin-4-yl)methyl)piperazin-1-yl)-6-methoxy-9H-pyrimido[4,5-b]indol-4-yl)-3-fluoro-2-methylphenyl)ethyl)-1,2,4-oxadiazole-5-carboxamide] | < 5.00
14 | 6.97 nM | COc1cc2c(cc1N1CCN(C3CC(c4ccc([C@@H]5CCC(=O)NC5=O)cc4)C3)CC1)[nH]c1ncnc(-c3ccc([C@@H](C)NC(=O)c4nc(C(C)(C)C)no4)c(C)c3F)c12 (stereo partly drawn) [Example 55, 3-(tert-butyl)-N—((R)-1-(4-(7-(4-(3-(4-((S)-2,6-dioxopiperidin-3-yl)phenyl)cyclobutyl)piperazin-1-yl)-6-methoxy-9H-pyrimido[4,5-b]indol-4-yl)-3-fluoro-2-methylphenyl)ethyl)-1,2,4-oxadiazole-5-carboxamide] | < 5.00
15 | 10.3 nM | COc1cc2c(cc1N1CCN(C3CC(c4ccc([C@H]5CCC(=O)NC5=O)cc4)C3)CC1)[nH]c1ncnc(-c3ccc([C@@H](C)NC(=O)c4nc(C(C)(C)C)no4)c(C)c3F)c12 (stereo partly drawn) [Example 56, 3-(tert-butyl)-N—((R)-1-(4-(7-(4-(3-(4-((R)-2,6-dioxopiperidin-3-yl)phenyl)cyclobutyl)piperazin-1-yl)-6-methoxy-9H-pyrimido[4,5-b]indol-4-yl)-3-fluoro-2-methylphenyl)ethyl)-1,2,4-oxadiazole-5-carboxamide] | < 5.00
16 | 9.6 nM | COc1cc2c(cc1N1CCN(C3CCN(c4cccc(C5CCC(=O)NC5=O)c4)C3)CC1)[nH]c1ncnc(-c3ccc([C@@H](C)NC(=O)c4nc(C(C)(C)C)no4)c(C)c3F)c12 (stereo partly drawn) [Example 57, 3-(tert-butyl)-N-((1R)-1-(4-(7-(4-(1-(3-(2,6-dioxopiperidin-3-yl)phenyl)pyrrolidin-3-yl)piperazin-1-yl)-6-methoxy-9H-pyrimido[4,5-b]indol-4-yl)-3-fluoro-2-methylphenyl)ethyl)-1,2,4-oxadiazole-5-carboxamide] | < 5.00
